Like-named read-outs stand apart in the source and are kept apart here. Starred links: 1 amine or outer side, 2 acyl side, 3 side chain; linkers in the order of their positions; H or OH if unused. Non-standard residues stand in square brackets, D forms with d. Residues, ends and D or L forms follow the SMILES beside them. *: point of attachment. Oic = O=C(O)[C@@H]1C[C@@H]2CCCC[C@@H]2N1; Phe(4-Cl) = N[C@@H](Cc1ccc(Cl)cc1)C(=O)O; γGlu = O=C(O)[C@H](CCC(=O)[*:2])N[*:1]; NMeR = CN[C@@H](CCCNC(=N)N)C(=O)O; Tridecanoyl = CCCCCCCCCCCCC(=O)*; hArg = N=C(N)NCCCC[C@H](N)C(=O)O; Cha = N[C@@H](CC1CCCCC1)C(=O)O; αMeL = CC(C)C[C@](C)(N)C(=O)O; αMeP = C[C@@]1(C(=O)O)CCCN1; Nle = CCCC[C@H](N)C(=O)O; Hexanoyl = CCCCCC(=O)*; AEEA = NCCOCCOCC(=O)O; Aib = CC(C)(N)C(=O)O; βAla = NCCC(=O)O
Legend:
[1] = In vitro stability in rat plasma; format: in vitro ADME
Method: (§1) Apelin peptides were spiked into rat plasma, liver homogenate, and kidney homogenate, which were obtained from commercial sources, to a final concentration of 5 μM. The samples were then incubated at 37° C. over a period of 4 hr. […] In a typical experiment, an aliquot of 100 μL of sample was taken from the incubation vial, followed by addition of 300 μL of MeOH containing internal standard. The quenched sample was centrifuged at 5500 g for 15 min after 15 min vortex in room temperature. The supernatant was then analyzed by high resolution LC-MS. […] In vitro plasma, […], and kidney stability results are shown below in Table 14.

[2] = In vitro stability in rat liver homogenate; format: in vitro ADME; conditions: tissue homogenate
Method: as §1

[3] = In vitro stability in rat kidney homogenate; format: in vitro ADME; conditions: rat, tissue homogenate
Method: as §1

[4] = biological target: T1, rat APJ receptor (Rattus norvegicus, UniProt Q9JHG3); test: [35S] GTPγS assay, rat APJ receptor; format: biochemical
T1 construct: expressed in transfected cells
T1 sequence (Q9JHG3 1-377): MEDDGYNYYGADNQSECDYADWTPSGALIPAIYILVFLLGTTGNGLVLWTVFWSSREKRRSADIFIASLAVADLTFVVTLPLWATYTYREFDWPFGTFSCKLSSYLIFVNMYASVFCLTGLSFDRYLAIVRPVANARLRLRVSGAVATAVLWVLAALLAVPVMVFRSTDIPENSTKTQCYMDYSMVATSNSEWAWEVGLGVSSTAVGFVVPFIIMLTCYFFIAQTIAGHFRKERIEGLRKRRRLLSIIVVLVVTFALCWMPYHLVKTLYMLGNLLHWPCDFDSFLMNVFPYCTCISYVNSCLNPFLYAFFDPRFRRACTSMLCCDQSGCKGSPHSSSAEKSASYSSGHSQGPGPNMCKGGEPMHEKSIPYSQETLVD
Method: The membranes were incubated with modified peptides in the assay buffer. […] Bound [^35S] GTPγS was separated from free radiolabel by filtration. The filter bound radioactivity was determined by liquid scintillation counting.

[5] = rat APJ receptor, read-out: EC50 Rat APJ Receptor
[6] = Table 16, read-out: EC50 Rat APJ Receptor

| SMILES | remaining at 4 h, 5 μM [1] [%] | remaining at 4 h, 5 μM [2] [%] | remaining at 4 h, 5 μM [3] [%] | EC50 [4, 5] [nM] | EC50 [4, 6] [nM] |
| --- | --- | --- | --- | --- | --- |
| CCCCCCCCCCCCC(=O)N[C@@H](CCC(=O)NCCOCCOCC(=O)NCCOCCOCC(=O)N[C@@H](CCCC)C(=O)N[C@@H](CCC(N)=O)C(=O)N[C@@H](CCCNC(=N)N)C(=O)N1CCC[C@H]1C(=O)N[C@@H](CCCCNC(=N)N)C(=O)N[C@@H](CC1CCCCC1)C(=O)N[C@@H](CO)C(=O)N[C@@H](Cc1c[nH]cn1)C(=O)N[C@@H](CCCCN)C(=O)NCC(=O)N1[C@H](C(=O)N[C@@H](CCCC)C(=O)N2CCC[C@H]2C(=O)N[C@@H](Cc2ccc(Cl)cc2)C(=O)O)C[C@@H]2CCCC[C@@H]21)C(=O)O [compound 338] ({Tridecanoyl-γGlu-AEEA-AEEA}-[Nle]QRP[hArg][Cha]SHKG[Oic][Nle]P[Phe(4-Cl)]-OH) | 76 | 12 | 1 | – | – |
| CCCC[C@H](NC(=O)[C@@H]1CCCN1C(=O)CNC(=O)[C@H](CCCCN)NC(=O)[C@H](Cc1c[nH]cn1)NC(=O)[C@H](CO)NC(=O)[C@](C)(CC(C)C)NC(=O)[C@H](CCCCNC(=N)N)NC(=O)[C@]1(C)CCCN1C(=O)[C@H](CCCNC(=N)N)NC(=O)[C@H](CCC(N)=O)NC(C)=O)C(=O)N1CCC[C@H]1C(=O)N[C@@H](Cc1ccc(Cl)cc1)C(=O)O [compound 69] | < 1 | – | < 1 | – | – |
| CC[C@H](NC(=O)[C@H](CC(N)=O)NC(=O)[C@H](Cc1c[nH]cn1)NC(=O)[C@H](CCCCN)NC(=O)[C@H](CCCNC(=N)N)NC(=O)[C@H](CC(C)C)NC(=O)[C@@H](N)CCCCN)C(=O)N[C@@H](CC(C)C)C(=O)N[C@@H](CCC(N)=O)C(=O)N[C@@H](CCCNC(=N)N)C(=O)N[C@@H](CCCNC(=N)N)C(=O)N[C@@H](CC)C(=O)N[C@@H](CCSC)C(=O)N1CCC[C@H]1C(=O)N[C@@H](CC(C)C)C(=O)N[C@@H](Cc1c[nH]cn1)C(=O)N[C@@H](CO)C(=O)N[C@@H](CCCNC(=N)N)C(=O)N[C@H](C(=O)N1CCC[C@H]1C(=O)N[C@@H](Cc1ccccc1)C(=O)N1CCC[C@H]1C(=O)O)C(C)C [compound 14] | < 1 | < 1 | – | 32.4 | – |
| CCCCCCCCCCCCC(=O)N[C@@H](CCC(=O)NCCOCCOCC(=O)NCCOCCOCC(=O)N[C@@H](CCC(N)=O)C(=O)N[C@@H](CCCNC(=N)N)C(=O)N1CCC[C@H]1C(=O)N(C)[C@@H](CCCNC(=N)N)C(=O)N[C@@H](CC(C)C)C(=O)N[C@@H](CO)C(=O)N[C@@H](Cc1c[nH]cn1)C(=O)N[C@@H](CCCCN)C(=O)NCC(=O)N1[C@H](C(=O)N[C@@H](CCCC)C(=O)N2CCC[C@H]2C(=O)N[C@@H](Cc2ccc(Cl)cc2)C(=O)O)C[C@@H]2CCCC[C@@H]21)C(=O)O [compound 352] ({Tridecanoyl-γGlu-AEEA-AEEA}-QRP[NMeR]LSHKG[Oic][Nle]P[Phe(4-Cl)]-OH) | 88 | 0 | – | – | 0.23 |
| CCCCCC(=O)N[C@@H](CCC(=O)NCCOCCOCC(=O)NCCOCCOCC(=O)N[C@@H](CCC(N)=O)C(=O)N[C@@H](CCCNC(=N)N)C(=O)N1CCC[C@H]1C(=O)N(C)[C@@H](CCCNC(=N)N)C(=O)N[C@@H](CC1CCCCC1)C(=O)N[C@@H](CO)C(=O)N[C@@H](Cc1c[nH]cn1)C(=O)N[C@@H](CCCCN)C(=O)NCC(=O)N1[C@H](C(=O)N[C@@H](CCCC)C(=O)NC(C)(C)C(=O)N[C@@H](Cc2ccc(Cl)cc2)C(=O)O)C[C@@H]2CCCC[C@@H]21)C(=O)O [compound 562] ({Hexanoyl-γGlu-AEEA-AEEA}-QRP[NMeR][Cha]SHKG[Oic][Nle][Aib][Phe(4-Cl)]-OH) | > 90 | 4 | < 1 | – | – |
| CCCCCCCCCCCCC(=O)N[C@@H](CCC(=O)NCCOCCOCC(=O)NCCOCCOCC(=O)N[C@@H](CCC(N)=O)C(=O)N[C@@H](CCCNC(=N)N)C(=O)N1CCC[C@H]1C(=O)N(C)[C@@H](CCCNC(=N)N)C(=O)N[C@@H](CC(C)C)C(=O)N[C@@H](CO)C(=O)N[C@@H](Cc1c[nH]cn1)C(=O)NCCC(=O)NCC(=O)N1CCC[C@H]1C(=O)N[C@@H](CCCC)C(=O)N1CCC[C@H]1C(=O)N[C@@H](Cc1ccc(Cl)cc1)C(=O)O)C(=O)O [compound 424] ({Tridecanoyl-γGlu-AEEA-AEEA}-QRP[NMeR]LSH[βAla]GP[Nle]P[Phe(4-Cl)]-OH) | 2 | < 1 | – | – | 17.2 |
| CCCCCCCCCCCCC(=O)N[C@@H](CCC(=O)NCCOCCOCC(=O)NCCOCCOCC(=O)N[C@@H](CCC(N)=O)C(=O)N[C@@H](CCCNC(=N)N)C(=O)N1CCC[C@H]1C(=O)N[C@@H](CCCCNC(=N)N)C(=O)N[C@@H](CC(C)C)C(=O)N[C@@H](CO)C(=O)N[C@@H](Cc1c[nH]cn1)C(=O)N[C@@H](CCCCN)C(=O)NCC(=O)N1[C@H](C(=O)N[C@@H](CCCC)C(=O)N2CCC[C@H]2C(=O)N[C@@H](Cc2ccc(Cl)cc2)C(=O)O)C[C@@H]2CCCC[C@@H]21)C(=O)O [compound 356] ({Tridecanoyl-γGlu-AEEA-AEEA}-QRP[hArg]LSHKG[Oic][Nle]P[Phe(4-Cl)]-OH) | 87 | 2 | 0 | – | – |
| CCCCCCCCCCCCC(=O)N[C@@H](CCC(=O)NCCOCCOCC(=O)NCCOCCOCC(=O)N[C@@H](CCC(N)=O)C(=O)N[C@@H](CCCNC(=N)N)C(=O)N1CCC[C@H]1C(=O)N(C)[C@@H](CCCNC(=N)N)C(=O)N[C@@H](CC1CCCCC1)C(=O)N[C@@H](CO)C(=O)N[C@@H](Cc1c[nH]cn1)C(=O)N[C@@H](CCCCN)C(=O)NCC(=O)N1[C@H](C(=O)N[C@@H](CCCC)C(=O)N2CCC[C@@]2(C)C(=O)N[C@@H](Cc2ccc(Cl)cc2)C(=O)O)C[C@@H]2CCCC[C@@H]21)C(=O)O [compound 412] ({Tridecanoyl-γGlu-AEEA-AEEA}-QRP[NMeR][Cha]SHKG[Oic][Nle][αMeP][Phe(4-Cl)]-OH) | 77 | 76 | 3 | – | – |
| CCCCCC(=O)N[C@@H](CCC(=O)NCCOCCOCC(=O)NCCOCCOCC(=O)N[C@@H](CCC(N)=O)C(=O)N(C)[C@@H](CCCCNC(=N)N)C(=O)N1CCC[C@H]1C(=O)N(C)[C@@H](CCCNC(=N)N)C(=O)N[C@@](C)(CC(C)C)C(=O)N[C@@H](CO)C(=O)N[C@@H](Cc1c[nH]cn1)C(=O)N[C@@H](CCCCN)C(=O)NCC(=O)N1CCC[C@H]1C(=O)N[C@@H](CCCC)C(=O)N1CCC[C@H]1C(=O)N[C@@H](Cc1ccc(Cl)cc1)C(=O)O)C(=O)O [compound 561] | < 1 | < 1 | – | 5.94 | – |
| CCCCCCCCCCCCC(=O)N[C@@H](CCC(=O)NCCOCCOCC(=O)NCCOCCOCC(=O)N[C@H](CCC(N)=O)C(=O)N[C@@H](CCCCNC(=N)N)C(=O)N1CCC[C@H]1C(=O)N[C@H](CCCNC(=N)N)C(=O)N[C@@H](CC1CCCCC1)C(=O)N[C@@H](CO)C(=O)N[C@@H](Cc1ccc(O)cc1)C(=O)N[C@@H](CCCCN)C(=O)NCC(=O)N1[C@H](C(=O)N[C@@H](CCCC)C(=O)N2CCC[C@H]2C(=O)N[C@@H](Cc2ccc(Cl)cc2)C(=O)O)C[C@@H]2CCCC[C@@H]21)C(=O)O [compound 373] ({Tridecanoyl-γGlu-AEEA-AEEA}-[dQ][hArg]P[dR][Cha]SYKG[Oic][Nle]P[Phe(4-Cl)]-OH) | – | – | 64 | – | – |
| CCCC[C@H](NC(=O)[C@@H]1CCCN1C(=O)CNC(=O)[C@H](CCCCN)NC(=O)[C@H](Cc1c[nH]cn1)NC(=O)[C@H](CO)NC(=O)[C@](C)(CC(C)C)NC(=O)[C@H](CCCCNC(=N)N)NC(=O)[C@@H]1CCCN1C(=O)[C@@H](CCCNC(=N)N)NC(=O)[C@H](CCC(N)=O)NC(C)=O)C(=O)N1CCC[C@H]1C(=O)N[C@@H](Cc1ccc(Cl)cc1)C(=O)O [compound 70] | 86.1 | 84.9 | – | 9.74 | – |
| CCCCCCCCCCCCC(=O)N[C@@H](CCC(=O)NCCOCCOCC(=O)NCCOCCOCC(=O)N[C@@H](CCC(N)=O)C(=O)N[C@@H](CCCNC(=N)N)C(=O)N(C)[C@@H](CCCNC(=N)N)C(=O)N[C@@](C)(CC(C)C)C(=O)N[C@@H](CO)C(=O)N[C@@H](Cc1c[nH]cn1)C(=O)N[C@@H](CCCCN)C(=O)NCC(=O)N1[C@H](C(=O)N[C@@H](CCCC)C(=O)N2CCC[C@H]2C(=O)N[C@@H](Cc2ccc(Cl)cc2)C(=O)O)C[C@@H]2CCCC[C@@H]21)C(=O)O [compound 396] ({Tridecanoyl-γGlu-AEEA-AEEA}-QR[NMeR][αMeL]SHKG[Oic][Nle]P[Phe(4-Cl)]-OH) | > 90 | < 1 | – | – | 1.14 |
| CCCCCCCCCCCCC(=O)N[C@@H](CCC(=O)NCCOCCOCC(=O)NCCOCCOCC(=O)N[C@@H](CCC(N)=O)C(=O)N[C@@H](CCCNC(=N)N)C(=O)N1CCC[C@H]1C(=O)N(C)[C@@H](CCCNC(=N)N)C(=O)N[C@@H](CC1CCCCC1)C(=O)N[C@@H](CO)C(=O)N[C@@H](Cc1c[nH]cn1)C(=O)N[C@@H](CCCCN)C(=O)NCC(=O)NC(C)(C)C(=O)N[C@@H](CCCC)C(=O)N1CCC[C@H]1C(=O)N[C@@H](Cc1ccc(Cl)cc1)C(=O)O)C(=O)O [compound 414] ({Tridecanoyl-γGlu-AEEA-AEEA}-QRP[NMeR][Cha]SHKG[Aib][Nle]P[Phe(4-Cl)]-OH) | – | – | – | – | 3.79 |
